In patent US9914726B2, “2-(2,4-difluorophenyl)-1,1-difluoro-1-(5-substituted-pyridin-2-yl)-3-(1H-tetrazol-1-yl)propan-2-ols and processes for their preparation” (Viamet Pharmaceuticals, Inc., priority 2014, dated 2018):

What was measured:
[1] = system: Mycosphaerella graminicola; anamorph: Septoria tritici (SEPTTR); test: Fungicidal activity: leaf blotch of wheat (SEPTTR), wheat seedlings sprayed and inoculated; format: in vivo; conditions: 50 ppm, wheat plants (variety Yuma); for SEPTTR 1DP (% disease control rating): 1 Day Protectant; for SEPTTR 3DC (% disease control rating): 3 Day Curative
Experimental: Technical grades of materials shown in Table 1 below were dissolved in acetone, which were then mixed with nine volumes of water containing 110 ppm Triton X-100. The fungicide solutions were applied onto wheat seedlings using an automated booth sprayer to run-off. All sprayed plants were allowed to air dry prior to further handling. All fungicides were evaluated using the aforementioned method for their activity vs. all target diseases. Wheat plants (variety Yuma) were grown from seed in a greenhouse in 50% mineral soil/50% soil-less Metro mix until the first leaf was fully emerged, with 7-10 seedlings per pot. These plants were inoculated with an aqueous spore suspension of Septoria tritici either prior to or after fungicide treatments. After inoculation the plants were kept in 100% relative humidity (one day in a dark dew chamber followed by two to three days in a lighted dew chamber at 20° C.) to permit spores to germinate and infect the leaf. The plants were then transferred to a greenhouse set at 20° C. for disease to develop. When disease symptoms were fully expressed on the 1st leaves of untreated plants, infection levels were assessed on a scale of 0 to 100 percent disease severity. Percent disease control was calculated using the ratio of disease severity on treated plants relative to untreated plants.

[2] = system: Puccinia triticina; synonym: Puccinia recondita f. sp. tritici (PUCCRT); test: Fungicidal activity: wheat brown rust (PUCCRT), wheat seedlings sprayed and inoculated; format: in vivo; conditions: 50 ppm, wheat plants (variety Yuma); for PUCCRT 1DC (% disease control rating): 1 Day Curative; for PUCCRT 1DP (% disease control rating): 1 Day Protectant

N#Cc1ccc(Oc2ccc(C(F)(F)C(O)(Cn3nnnc3C(=O)c3ccccc3)c3ccc(F)cc3F)nc2)cc1 (stereo not shown) [—C(O)Ph, 4-((6-(3-(5-benzoyl-1H-tetrazol-1-yl)-2-(2,4-difluorophenyl)-1,1-difluoro-2-hydroxypropyl)pyridin-3-yl)oxy)benzonitrile]
SEPTTR 1DP (% disease control rating) [1]: C (40-59)
SEPTTR 3DC (% disease control rating) [1]: C (40-59)
PUCCRT 1DC (% disease control rating) [2]: D (<40)
PUCCRT 1DP (% disease control rating) [2]: A (80-100)

Cc1ccc(S(=O)(=O)c2nnnn2CC(O)(c2ccc(F)cc2F)C(F)(F)c2ccc(Oc3ccc(C#N)cc3)cn2)cc1 (stereo not shown) [—SO2(4-MePh), 4-((6-(2-(2,4-difluorophenyl)-1,1-difluoro-2-hydroxy-3-(5-tosyl-1H-tetrazol-1-yl)propyl)pyridin-3-yl)oxy)benzonitrile]
SEPTTR 1DP (% disease control rating) [1]: C (40-59)
SEPTTR 3DC (% disease control rating) [1]: D (<40)
PUCCRT 1DC (% disease control rating) [2]: A (80-100)
PUCCRT 1DP (% disease control rating) [2]: D (<40)

CC(=O)c1nnnn1CC(O)(c1ccc(F)cc1F)C(F)(F)c1ccc(Oc2ccc(C#N)cc2)cn1 (stereo not shown) [—C(O)Me, 4-((6-(3-(5-acetyl-1H-tetrazol-1-yl)-2-(2,4-difluorophenyl)-1,1-difluoro-2-hydroxypropyl)pyridin-3-yl)oxy)benzonitrile]
SEPTTR 1DP (% disease control rating) [1]: A (80-100)
SEPTTR 3DC (% disease control rating) [1]: A (80-100)
PUCCRT 1DC (% disease control rating) [2]: A (80-100)
PUCCRT 1DP (% disease control rating) [2]: A (80-100)

CCOC(=O)c1nnnn1CC(O)(c1ccc(F)cc1F)C(F)(F)c1ccc(Oc2ccc(C#N)cc2)cn1 (stereo not shown) [—CO2Et, ethyl 1-(3-(5-(4-cyanophenoxy)pyridin-2-yl)-2-(2,4-difluorophenyl)-3,3-difluoro-2-hydroxypropyl)-1H-tetrazole-5-carboxylate]
SEPTTR 1DP (% disease control rating) [1]: A (80-100)
SEPTTR 3DC (% disease control rating) [1]: A (80-100)
PUCCRT 1DC (% disease control rating) [2]: A (80-100)
PUCCRT 1DP (% disease control rating) [2]: A (80-100)
